{"source": "patent US20030092197A1", "about": "“Proteins, genes and their use for diagnosis and treatment of cardiac response” (priority 2000, published 2003)", "key": {"[1]": {"system": "spontaneous hypertensive rat", "assay": "Severity of cardiac myocyte histopathologic lesions graded by light microscopy", "assay_type": "in vivo", "conditions": "scale of 0 to 3; 7 weekly injections; doxorubicin 1 mg/kg i.v., dexrazoxane 50 mg/kg i.p.", "method": "(§1) Cardiac response was induced by treatment with doxorubicin (DX) 1 mg/kg either alone or 30 min after an i.p. injection of dexrazoxane (ICRF) 50 mg/kg as described in the Examples infra. Treatment with ICRF alone was also administered. The treatment comprised of 7 weekly injections and samples were taken within 24 h after the final injection.\nDoxorubicin is a marketed anthracycline anticancer drug that causes a serious chronic cardiac toxicity. The spontaneous hypertensive rat is a useful animal model to study this toxicity. Furthermore by incorporating a cardioprotectant in the study design, the association of protein markers with the undesirable cardiotoxicity of the cardiotoxic agent is strengthened. Pretreatment with the intracellular iron chelating compound dexrazoxane (also referred to as ICRF-187) provides significant cardioprotection against clinical doxorubicin-induced cardiotoxicity and the drug has been FDA approved for this indication.\nSamples from animals treated to induce cardiac reponse or treated with a cardioprotectant can be collected, prepared and analysed as described herein. […]\nThe severity of cardiac myocyte histopathologic lesions (cytoplasmic vacuolization and myofibrillar loss) was graded semiquantitatively by light microscopy on a scale of 0 to 3. […] Plasma cardiac troponin T concentrations were measured by chemiluminescent immunoassay. […]"}, "[2]": {"system": "Cardiac Response-Associated Features (CRFs) in blood", "assay": "2D gel electrophoresis of blood: CRFs differentially expressed in treated vs control animals (fold change)", "assay_type": "in vivo, rat", "method": "Using the following procedure, proteins in blood samples from control animals and animals having cardiac response were separated by isoelectric focusing followed by SDS-PAGE and analyzed. Serial samples were taken over time. Parts 6.1.2 to 6.1.15 (inclusive) of the procedure set forth are hereby designated as the “Reference Protocol”\nas §1\nSamples from animals treated to induce cardiac reponse or treated with a cardioprotectant can be collected, prepared and analysed as described herein. In the studies provided herein, animals were administered an intravenous injection of either (i) doxorubicin 1 mg/kg alone; (ii) doxorubicin 1 mg/kg 30 min after an i.p. injection of dexrazoxane 50 mg/kg or (iii) treated with dexrazoxane 50 mg/kg alone. Control groups received saline only. 7 weekly injections were administered and samples were collected 24 h after the final injection. Plasma was collected for discovery of novel biomarkers of cardiac damage using 2-D gel electrophoresis and for measurement of cardiac specific troponin T levels. Tissues were collected for histopathological confirmation of cardiac tissue injury.\nA protein assay (Pierce BCA Cat # 23225) was performed on each serum sample as received. Prior to protein separation, each sample was processed for selective depletion of certain proteins, in order to enhance and simplify protein separation and facilitate analysis by removing proteins that may interfere with or limit analysis of proteins of interest. See International Patent Application No. PCT/GB99/01742, filed Jun. 1, 1999, which is incorporated by reference in its entirety, with particular reference to the experimental protocol.\nRemoval of albumin, haptoglobin, transferrin and immunoglobin G (IgG) from blood (“blood depletion”) was achieved by an affinity chromatography purification step in which the sample was passed through a series of ‘Hi-Trap’ columns containing immobilized antibodies for selective removal of albumin, haptoglobin and transferrin, and protein G for selective removal of immunoglobin G. Two affinity columns in a tandem assembly were prepared by coupling antibodies to protein G-sepharose contained in Hi-Trap columns (Protein G-Sepharose Hi-Trap columns (1 ml) Pharmacia Cat. No. 17-0404-01). This was done by circulating the following solutions sequentially through the columns: (1) Dulbecco's Phosphate Buffered Saline (Gibco BRL Cat. No. 14190-094); (2) concentrated antibody solution; (3) 200 mM sodium carbonate buffer, pH 8.35; (4) cross-linking solution (200 mM sodium carbonate buffer, pH 8.35, 20 mM dimethylpimelimidate); and (5) 500 mM ethanolamine, 500 mM NaCl. A third (un-derivatised) protein G Hi-Trap column was then attached to the lower end of the tandem column assembly.\nThe chromatographic procedure was automated using an Akta Fast Protein Liquid Chromatography (FPLC) System such that a series of up to seven runs could be performed sequentially. The samples were passed through the series of 3 Hi-Trap columns in which the affinity chromatography media selectively bind the above proteins thereby removing them from the sample. Fractions (typically 3 ml per tube) were collected of unbound material (“Flowthrough fractions”) that eluted through the column during column loading and washing stages and of bound proteins (“Bound/Eluted fractions”) that were eluted by step elution with Immunopure Gentle Ag/Ab Elution Buffer (Pierce Cat. No. 21013). The eluate containing unbound material was collected in fractions which were pooled, desalted/concentrated by centrifugal ultrafiltration and stored to await further analysis by 2D PAGE. […]"}}}
{"smiles": "C[C@@H](CN1CC(=O)NC(=O)C1)N1CC(=O)NC(=O)C1", "note": "[ICRF, dexrazoxane]", "values": [{"measurement": "average lesion score (cytoplasmic vacuolization and myofibrillar loss)", "setting": "[1]", "result": 0}, {"measurement": "FC ICRF vs Control", "setting": "[2]; CRF 28, pI 5.7, MW 26,409 Da, P 0.004", "result": "−2.93"}, {"measurement": "FC ICRF vs Control", "setting": "[2]; CRF 56, pI 4.9, MW 48,318 Da, P 0.004", "result": 3.12}, {"measurement": "FC ICRF vs Control", "setting": "[2]; CRF 162, P 0.003", "result": "−3.47"}]}
{"smiles": "COc1cccc2c1C(=O)c1c(O)c3c(c(O)c1C2=O)C[C@@](O)(C(=O)CO)C[C@@H]3O[C@H]1C[C@H](N)[C@H](O)[C@H](C)O1", "note": "[DX, doxorubicin]", "values": [{"measurement": "average lesion score (cytoplasmic vacuolization and myofibrillar loss)", "setting": "[1]", "result": 2.1}, {"measurement": "FC DX vs Control", "setting": "[2]; CRF 2, pI 5.7, MW 12,367 Da, P 0.010", "result": "−10.29"}, {"measurement": "FC DX vs Control", "setting": "[2]; CRF 4, pI 5.2, MW 15,589 Da, P 1.7E-04", "result": "−9.20"}, {"measurement": "FC DX vs Control", "setting": "[2]; CRF 6, pI 4.6, MW 34,921 Da, P 1.0E-03", "result": "−7.77"}, {"measurement": "FC DX vs Control", "setting": "[2]; CRF 9, pI 5.2, MW 15,591 Da, P 1.5E-03", "result": "−5.72"}, {"measurement": "FC DX vs Control", "setting": "[2]; CRF 10, pI 5, MW 51,899 Da, P 0.007", "result": "−6.99"}, {"measurement": "FC DX vs Control", "setting": "[2]; CRF 19, pI 5.7, MW 68,576 Da, P 3.7E-04", "result": "−5.12"}, {"measurement": "FC DX vs Control", "setting": "[2]; CRF 44, pI 5.8, MW 52,589 Da, P 1.1E-03", "result": 4.83}, {"measurement": "FC DX vs Control", "setting": "[2]; CRF 47, pI 4.4, MW 11,368 Da, P 0.010", "result": 6.81}, {"measurement": "FC DX vs Control", "setting": "[2]; CRF 58, pI 6.8, MW 34,063 Da, P 0.003", "result": 5.43}, {"measurement": "FC DX vs Control", "setting": "[2]; CRF 69, pI 5.2, MW 54,619 Da, P 0.005", "result": "−3.54"}, {"measurement": "FC DX vs Control", "setting": "[2]; CRF 79, pI 6.8, MW 80,678 Da, P 1.6E-04", "result": "−4.51"}, {"measurement": "FC DX vs Control", "setting": "[2]; CRF 82, pI 7.6, MW 77,393 Da, P 2.9E-04", "result": "−9.06"}, {"measurement": "FC DX vs Control", "setting": "[2]; CRF 84, pI 4.8, MW 73,524 Da, P 1.1E-03", "result": "−8.60"}, {"measurement": "FC DX vs Control", "setting": "[2]; CRF 90, pI 5.2, MW 67,336 Da, P 0.005", "result": "−3.93"}, {"measurement": "FC DX vs Control", "setting": "[2]; CRF 92, pI 6.0, MW 63,037 Da, P 0.006", "result": "−8.26"}, {"measurement": "FC DX vs Control", "setting": "[2]; CRF 103, pI 5, MW 56,471 Da, P 0.007", "result": "−6.02"}, {"measurement": "FC DX vs Control", "setting": "[2]; CRF 104, pI 7, MW 53,989 Da, P 0.003", "result": "−11.48"}, {"measurement": "FC DX vs Control", "setting": "[2]; CRF 112, pI 7.1, MW 47,499 Da, P 0.006", "result": 4.92}, {"measurement": "FC DX vs Control", "setting": "[2]; CRF 115, pI 7.1, MW 38,136 Da, P 2.3E-04", "result": 3.55}, {"measurement": "FC DX vs Control", "setting": "[2]; CRF 118, pI 6.5, MW 33,117 Da, P 3.4E-04", "result": "−4.82"}, {"measurement": "FC DX vs Control", "setting": "[2]; CRF 122, pI 5.3, MW 24,915 Da, P 0.003", "result": 3.98}, {"measurement": "FC DX vs Control", "setting": "[2]; CRF 127, pI 4.8, MW 23,325 Da, P 0.006", "result": 5.25}, {"measurement": "FC DX vs Control", "setting": "[2]; CRF 129, pI 5.4, MW 17,765 Da, P 0.010", "result": 4.29}, {"measurement": "FC DX vs Control", "setting": "[2]; CRF 130, pI 4.8, MW 14,082 Da, P 0.009", "result": "−4.56"}, {"measurement": "FC DX vs Control", "setting": "[2]; CRF 131, pI 4.3, MW 11,917 Da, P 0.009", "result": 4.28}, {"measurement": "FC DX vs Control", "setting": "[2]; CRF 134, pI 5.1, MW 51,125 Da, P 0.009", "result": 7.99}, {"measurement": "FC DX vs Control", "setting": "[2]; CRF 135, pI 7.3, MW 85,176 Da, P 1.2E-05", "result": 4.77}, {"measurement": "FC DX vs Control", "setting": "[2]; CRF 142, pI 5.4, MW 105,458 Da, P 0.007", "result": "−5.30"}, {"measurement": "FC DX vs Control", "setting": "[2]; CRF 144, P 3.7E-04", "result": "−3.70"}, {"measurement": "FC DX vs Control", "setting": "[2]; CRF 145, P 4.5E-04", "result": 3.68}, {"measurement": "FC DX vs Control", "setting": "[2]; CRF 146, P 6.2E-04", "result": "−4.19"}, {"measurement": "FC DX vs Control", "setting": "[2]; CRF 147, P 0.002", "result": "−4.61"}, {"measurement": "FC DX vs Control", "setting": "[2]; CRF 148, P 0.002", "result": "−5.11"}, {"measurement": "FC DX vs Control", "setting": "[2]; CRF 149, P 0.002", "result": "−3.78"}, {"measurement": "FC DX vs Control", "setting": "[2]; CRF 150, pI 4.11, MW 47828 Da, P 0.003", "result": "−8.39"}, {"measurement": "FC DX vs Control", "setting": "[2]; CRF 151, P 0.003", "result": 3.50}, {"measurement": "FC DX vs Control", "setting": "[2]; CRF 152, P 0.003", "result": "−3.97"}, {"measurement": "FC DX vs Control", "setting": "[2]; CRF 153, P 0.004", "result": "−4.57"}, {"measurement": "FC DX vs Control", "setting": "[2]; CRF 154, pI 7.79, MW 55965 Da, P 0.004", "result": 5.39}, {"measurement": "FC DX vs Control", "setting": "[2]; CRF 155, P 0.004", "result": "−3.84"}, {"measurement": "FC DX vs Control", "setting": "[2]; CRF 156, pI 6.89, MW 78237 Da, P 0.005", "result": "−3.99"}, {"measurement": "FC DX vs Control", "setting": "[2]; CRF 157, P 0.005", "result": "−3.54"}, {"measurement": "FC DX vs Control", "setting": "[2]; CRF 158, P 0.005", "result": "−4.59"}, {"measurement": "FC DX vs Control", "setting": "[2]; CRF 159, P 0.006", "result": 4.04}, {"measurement": "FC DX vs Control", "setting": "[2]; CRF 160, P 0.006", "result": "−6.43"}, {"measurement": "FC DX vs Control", "setting": "[2]; CRF 161, P 0.006", "result": 4.58}, {"measurement": "FC DX vs Control", "setting": "[2]; CRF 162, P 0.006", "result": "−4.37"}, {"measurement": "FC DX vs Control", "setting": "[2]; CRF 163, P 0.006", "result": 5.15}, {"measurement": "FC DX vs Control", "setting": "[2]; CRF 164, pI 4.51, MW 72286 Da, P 0.007", "result": 4.75}, {"measurement": "FC DX vs Control", "setting": "[2]; CRF 165, P 0.007", "result": "−5.52"}, {"measurement": "FC DX vs Control", "setting": "[2]; CRF 166, P 0.008", "result": "−3.86"}, {"measurement": "FC DX vs Control", "setting": "[2]; CRF 167, P 0.008", "result": 3.77}, {"measurement": "FC DX vs Control", "setting": "[2]; CRF 168, P 0.009", "result": 4.20}]}
